Results taken from the NIST ThermoML archive (doi:10.1016/j.jct.2005.07.017).
± gives the expanded uncertainty stated by the source.

Conditions: 298.15 K; 101.33 kPa; Liquid

| mass density | SMILES |
| --- | --- |
| 735.99 ± 0.86 kg/m3 | COC(C)(C)C [2-methoxy-2-methylpropane] |
| 848.1 ± 0.73 kg/m3 | CC1CCCO1 (centres undefined) [2-methyltetrahydrofuran] |
| 698.73 ± 0.86 kg/m3 | CCCCCCCC [octane] |
| 882.09 ± 0.64 kg/m3 | C1CCOC1 [tetrahydrofuran] |
